Data as given in patent US20070060529A1, “ADMINISTRATION OF DIPEPTIDYL PEPTIDASE INHIBITORS” (priority 2005, published 2007).

Tested on: db/db (BKS.Cg-+Lepr^db/+Lepr^db) mice
Assay: Plasma glucose after 21 days of administration in powder chow, alone or with pioglitazone
Format: in vivo
Conditions: male db/db mice, 21 days in powder chow, feeding condition; average (n=7) ± standard deviation
Protocol: Male db/db (BKS.Cg-+Lepr^db/+Lepr^db) mice (6 weeks of age, CLEA Japan (Tokyo, Japan)) were divided into 4 groups (n=7 in each group) comprising Group A to Group D. Group A had free access to CE-2 powder chow (CLEA Japan) for 21 days. […] Group C had free access to CE-2 powder chow (CLEA Japan) containing 0.0075% (w/w) of pioglitazone hydrochloride for 21 days. The dose of pioglitazone in Group C was calculated to be 17.7±0.6 (mean±SD) mg/kg body weight/day. […] During 21 days of administration of the powder chow, there were not significant differences in the administration amount of the powder chow in the above 4 groups. After 21 days of administration of the powder chow, blood samples were taken from the orbital veins of the mice by capillary pipette under feeding condition, and plasma glucose levels were enzymatically measured by using Autoanalyzer 7080 (Hitachi, Japan).
The values in the table means average (n=7)±standard deviation.

Compound | Plasma Glucose
N#Cc1ccccc1Cn1c(N2CCC[C@@H](N)C2)ncc(F)c1=O [Compound I, 2-[[2-[(3R)-3-Amino-piperidinyl)-5-fluoro-6-oxo-6H-pyrimidinyl]methyl]-benzonitrile] | 412.4 ± 77.5 mg/dL
CCc1ccc(CCOc2ccc(CC3SC(=O)NC3=O)cc2)nc1 (centres unmarked) [Pioglitazone, 5-{[4-(2-(5-ethyl-2-pyridyl)ethoxy)phenyl]-methyl}-thiazolidine-2,4-dione] | 394.4 ± 47.9 mg/dL
